Measurements taken from patent US11400078B2, “Methods of treatment for cholestatic and fibrotic diseases” (Genfit, priority 2016, dated 2022).

Test system: TGFβ1-induced expression of α-SMA protein in human HSC
Assay: α-SMA ELISA in TGFβ1-activated human primary hepatic stellate cells (single agents and NTZ/statin or TZ/statin combination matrix, EOB/EOHSA)
Format: cell-based
Conditions: hHSC, TGFβ1 1 ng/mL, 48 h; for IC50: Homo sapiens, 1 h preincubation, ELISA, read-out: IC50, reduction of α-SMA level in TGFβ-induced HSC; for antifibrotic activity as single agent (α-SMA, dose-response): result in words
Method: After 48 hours of incubation, the expression of α-SMA was measured by ELISA. […] Data are presented as mean (triplicates)±standard deviation (SD). Statistical analyses were performed by one-way ANOVA followed by Bonferroni post-hoc tests, using Sigma Plot 11.0 software. […] After 48 hours of incubation, the expression of α-SMA was measured by ELISA. […] Data are presented as mean (triplicates)±standard deviation (SD). Statistical analyses were performed by one-way ANOVA followed by Bonferroni post-hoc tests, using Sigma Plot 11.0 software. […] Combinations were tested in a dose-response matrix format and analyzed according to the excess over Bliss (EOB) additivism model. Dilution series of NTZ (column) and pitavastatin (row) were prepared, including their respective DMSO controls. […] Data are presented as mean of quadruplicates. (B) EOB scores were calculated as described in Materials and Methods. Any compound pair with positive EOB values was considered synergistic (colored from light grey to black). […] Data are presented as mean (quadruplicates)±standard deviation (SD). Statistical analyses between single agent vs product combination were performed by student t-test or Mann-Whitney Rank Sum Test using Sigma Plot 11.0 software. [*: p<0.05; **: p<0.01; ***: p<0.001]. […] Cell-culture flasks were coated with poly-L lysine (Sigma cat #P4707) for a better adherence. The checkerboard matrix was adopted. NTZ or TZ and statin stocks were serially diluted in DMSO in a 5-points series in a row (statin) and a column (NTZ or TZ) of a 96-well plate. […] Then, 2-fold and 4-fold higher and lower concentrations were selected. […] The human primary hepatic stellate cells (hHSC) (Innoprot) were cultured under standard conditions, as described above. […] Plates were then incubated for 30 min on ice using a plate shaker, before storage at -20° C. The level of α-SMA was measured using a Sandwich ELISA. Briefly, the wells of an ELISA plate were first coated with the capture antibody (mouse monoclonal anti-ACTA2, Abnova) at 4° C. overnight. […] The cell lysates were transferred into the wells for binding to the capture antibody for a period of 2 h at room temperature. After the washing procedure, the detection antibody (biotinylated mouse monoclonal anti-ACTA2, Abnova) was added for 2 hours at room temperature followed by 3 washes. For the detection, an HRP-conjugated streptavidin (R&D Systems cat #DY998) was first applied for 30 min at room temperature. […] Upon oxidation, TMB forms a water-soluble blue reaction product that becomes yellow with addition of sulfuric acid (solution stop), enabling accurate measurement of the intensity at 450 nm using a spectrophotometer. The developed color is directly proportional to the amount of α-SMA present in the lysate. […] Expected Bliss additivism score (E) was firstly determined by the equation: E=(A+B)-(A×B) where A and B are the percentage inhibitions converted into fractions within a range of 0 to 1 of NTZ (A) and a given statin (B) at a given dose. […] For each product combination (NTZ+statin), an additional total Bliss score was calculated by summation of all EOB. […] The significance of the observed differences between NTZ/statin or TZ/statin and single agents were estimated by a student t-test or Mann-Whitney Rank Sum Test using Sigma Plot 11.0 software [*: p<0.05; **: p<0.01; ***: p<0.001].

## CC(C)c1c(C(=O)Nc2ccccc2)c(-c2ccccc2)c(-c2ccc(F)cc2)n1CC[C@@H](O)C[C@@H](O)CC(=O)O [atorvastatin]
  IC50: 1000 to 3000 nM

## CC(C)n1c(/C=C/C(O)CC(O)CC(=O)O)c(-c2ccc(F)cc2)c2ccccc21 (stereo not drawn) [fluvastatin]
  IC50: < 1000 nM

## CC[C@H](C)C(=O)O[C@H]1C[C@@H](C)C=C2C=C[C@H](C)[C@H](CC[C@@H]3C[C@@H](O)CC(=O)O3)[C@H]21 [lovastatin]
  IC50: 1000 to 3000 nM

## O=C(O)C[C@H](O)C[C@H](O)/C=C/c1c(C2CC2)nc2ccccc2c1-c1ccc(F)cc1 [pitavastatin]
  IC50: < 1000 nM

## CC[C@H](C)C(=O)O[C@H]1C[C@H](O)C=C2C=C[C@H](C)[C@H](CC[C@@H](O)C[C@@H](O)CC(=O)O)[C@H]21 [pravastatin]
  antifibrotic activity as single agent (α-SMA, dose-response): inactive

## CC(C)c1nc(N(C)S(C)(=O)=O)nc(-c2ccc(F)cc2)c1/C=C/[C@@H](O)C[C@@H](O)CC(=O)O [rosuvastatin]
  antifibrotic activity as single agent (α-SMA, dose-response): significant antifibrotic activity but only at the highest doses
